According to ChEMBL document CHEMBL2021812, “Aryltriflates as a Neglected Moiety in Medicinal Chemistry: A Case Study from a Lead Optimization of CXCL8 Inhibitors” (ACS Med Chem Lett, 2011):

system: Hepatocyte; assay: Drug metabolism in rat hepatocytes assessed as (S)-2-(4-(trifluoromethylsulfonyloxy)phenyl)propanoic acid level at 10 uM after 60 mins; assay type: ADME, cell-based; conditions: 1 h

SMILES	Drug metabolism
C[C@@H](C(=O)O)c1ccc(OS(=O)(=O)C(F)(F)F)cc1	449 ng/mL

system: Hepatocyte; assay: Drug metabolism in rat hepatocytes assessed as (S)-2-(4-(trifluoromethylsulfonyloxy)phenyl)propanoic acid level at 10 uM after 30 mins; assay type: ADME, cell-based; conditions: 0.5 h

SMILES	Drug metabolism
C[C@@H](C(=O)O)c1ccc(OS(=O)(=O)C(F)(F)F)cc1	210 ng/mL

system: Hepatocyte; assay: Drug metabolism in rat hepatocytes assessed as (S)-2-(4-(trifluoromethylsulfonyloxy)phenyl)propanoic acid level at 10 uM after 15 mins; assay type: ADME, cell-based; conditions: 0.25 h

SMILES	Drug metabolism
C[C@@H](C(=O)O)c1ccc(OS(=O)(=O)C(F)(F)F)cc1	117 ng/mL

system: Hepatocyte; assay: Metabolic stability in rat hepatocytes assessed as compound remaining at 10 uM after 120 mins; assay type: ADME, cell-based; conditions: 2 h

SMILES	Stability
C[C@@H](C(=O)O)c1ccc(OS(=O)(=O)C(F)(F)F)cc1	1946 ng/mL

system: Hepatocyte; assay: Metabolic stability in rat hepatocytes assessed as compound remaining at 10 uM after 90 mins; assay type: ADME, cell-based; conditions: 1.5 h

SMILES	Stability
C[C@@H](C(=O)O)c1ccc(OS(=O)(=O)C(F)(F)F)cc1	2167 ng/mL

system: Hepatocyte; assay: Metabolic stability in rat hepatocytes assessed as compound remaining at 10 uM after 60 mins; assay type: ADME, cell-based; conditions: 1 h

SMILES	Stability
C[C@@H](C(=O)O)c1ccc(OS(=O)(=O)C(F)(F)F)cc1	2287 ng/mL

system: Hepatocyte; assay: Metabolic stability in rat hepatocytes assessed as compound remaining at 10 uM after 30 mins; assay type: ADME, cell-based; conditions: 0.5 h

SMILES	Stability
C[C@@H](C(=O)O)c1ccc(OS(=O)(=O)C(F)(F)F)cc1	2541 ng/mL

system: Hepatocyte; assay: Metabolic stability in rat hepatocytes assessed as compound remaining at 10 uM after 15 mins; assay type: ADME, cell-based; conditions: 0.25 h

SMILES	Stability
C[C@@H](C(=O)O)c1ccc(OS(=O)(=O)C(F)(F)F)cc1	2839 ng/mL

system: Hepatocyte; assay: Drug metabolism in human hepatocytes assessed as (S)-2-(4-(trifluoromethylsulfonyloxy)phenyl)propanoic acid level at 10 uM after 120 mins; assay type: ADME, cell-based; conditions: 2 h

SMILES	Drug metabolism
C[C@@H](C(=O)O)c1ccc(OS(=O)(=O)C(F)(F)F)cc1	330 ng/mL

system: Hepatocyte; assay: Drug metabolism in human hepatocytes assessed as (S)-2-(4-(trifluoromethylsulfonyloxy)phenyl)propanoic acid level at 10 uM after 90 mins; assay type: ADME, cell-based; conditions: 1.5 h

SMILES	Drug metabolism
C[C@@H](C(=O)O)c1ccc(OS(=O)(=O)C(F)(F)F)cc1	260 ng/mL

system: Hepatocyte; assay: Drug metabolism in human hepatocytes assessed as (S)-2-(4-(trifluoromethylsulfonyloxy)phenyl)propanoic acid level at 10 uM after 60 mins; assay type: ADME, cell-based; conditions: 1 h

SMILES	Drug metabolism
C[C@@H](C(=O)O)c1ccc(OS(=O)(=O)C(F)(F)F)cc1	240 ng/mL

system: Hepatocyte; assay: Drug metabolism in human hepatocytes assessed as (S)-2-(4-(trifluoromethylsulfonyloxy)phenyl)propanoic acid level at 10 uM after 30 mins; assay type: ADME, cell-based; conditions: 0.5 h

SMILES	Drug metabolism
C[C@@H](C(=O)O)c1ccc(OS(=O)(=O)C(F)(F)F)cc1	84 ng/mL

system: Hepatocyte; assay: Drug metabolism in human hepatocytes assessed as (S)-2-(4-(trifluoromethylsulfonyloxy)phenyl)propanoic acid level at 10 uM after 15 mins; assay type: ADME, cell-based; conditions: 0.25 h

SMILES	Drug metabolism
C[C@@H](C(=O)O)c1ccc(OS(=O)(=O)C(F)(F)F)cc1	21 ng/mL

system: Hepatocyte; assay: Metabolic stability in human hepatocytes assessed as compound remaining at 10 uM after 120 mins; assay type: ADME, cell-based; conditions: 2 h

SMILES	Stability
C[C@@H](C(=O)O)c1ccc(OS(=O)(=O)C(F)(F)F)cc1	2541 ng/mL

system: Hepatocyte; assay: Metabolic stability in human hepatocytes assessed as compound remaining at 10 uM after 90 mins; assay type: ADME, cell-based; conditions: 1.5 h

SMILES	Stability
C[C@@H](C(=O)O)c1ccc(OS(=O)(=O)C(F)(F)F)cc1	2620 ng/mL

system: Hepatocyte; assay: Metabolic stability in human hepatocytes assessed as compound remaining at 10 uM after 60 mins; assay type: ADME, cell-based; conditions: 1 h

SMILES	Stability
C[C@@H](C(=O)O)c1ccc(OS(=O)(=O)C(F)(F)F)cc1	2696 ng/mL

system: Hepatocyte; assay: Metabolic stability in human hepatocytes assessed as compound remaining at 10 uM after 30 mins; assay type: ADME, cell-based; conditions: 0.5 h

SMILES	Stability
C[C@@H](C(=O)O)c1ccc(OS(=O)(=O)C(F)(F)F)cc1	2844 ng/mL

system: not listed separately; assay: Chemical stability of the compound assessed as compound remaining at pH 9 after 2 hrs; assay type: physicochemical; conditions: buffer, read-out: Stability

SMILES	remaining at 2 h
C[C@@H](C(=O)O)c1ccc(OS(=O)(=O)C(F)(F)F)cc1	30%

system: Hepatocyte; assay: Metabolic stability in human hepatocytes assessed as compound remaining at 10 uM after 15 mins; assay type: ADME, cell-based; conditions: 0.25 h

SMILES	Stability
C[C@@H](C(=O)O)c1ccc(OS(=O)(=O)C(F)(F)F)cc1	2932 ng/mL

system: not listed separately; assay: Chemical stability of the compound assessed as compound remaining at pH 3.5 after 2 hrs; assay type: physicochemical; conditions: buffer, read-out: Stability

SMILES	remaining at 2 h
C[C@@H](C(=O)O)c1ccc(OS(=O)(=O)C(F)(F)F)cc1	> 99%

system: not listed separately; assay: Chemical stability of the compound assessed as compound remaining at pH 7.4 after 2 hrs; assay type: physicochemical; conditions: buffer, read-out: Stability

SMILES	remaining at 2 h
C[C@@H](C(=O)N(C)O)c1ccc(OS(=O)(=O)C(F)(F)F)cc1	> 98%
C[C@@H](C(=O)O)c1ccc(OS(=O)(=O)C(F)(F)F)cc1	> 99%

system: not listed separately; assay: Half life in iv dosed rat plasma; assay type: ADME, organism-based; conditions: not given

SMILES	half-life
C[C@@H](C(=O)N(C)O)c1ccc(OS(=O)(=O)C(F)(F)F)cc1	< 1 h

system: not listed separately; assay: Metabolic stability in rat liver microsomes assessed as compound remaining at 1 uM preincubated for 10 mins measured after 30 mins; assay type: ADME, Microsome; conditions: read-out: Stability

SMILES	remaining at 0.5 h, 1 µM
C[C@@H](C(=O)N(C)O)c1ccc(OS(=O)(=O)C(F)(F)F)cc1	75%

system: not listed separately; assay: Metabolic stability in rat plasma assessed as compound remaining at 1 uM after 1 hr; assay type: ADME, cell-free; conditions: read-out: Stability

SMILES	remaining at 1 h, 1 µM
C[C@@H](C(=O)N(C)O)c1ccc(OS(=O)(=O)C(F)(F)F)cc1	96%
C[C@@H](C(=O)O)c1ccc(OS(=O)(=O)C(F)(F)F)cc1	100%

molecular target: CYP2C19 (Homo sapiens, UniProt P33261); assay: Inhibition of CYP2C19 using DBF as substrate at 10 uM; assay type: ADME; conditions: probe DBF
Sequence (P33261 whole entry): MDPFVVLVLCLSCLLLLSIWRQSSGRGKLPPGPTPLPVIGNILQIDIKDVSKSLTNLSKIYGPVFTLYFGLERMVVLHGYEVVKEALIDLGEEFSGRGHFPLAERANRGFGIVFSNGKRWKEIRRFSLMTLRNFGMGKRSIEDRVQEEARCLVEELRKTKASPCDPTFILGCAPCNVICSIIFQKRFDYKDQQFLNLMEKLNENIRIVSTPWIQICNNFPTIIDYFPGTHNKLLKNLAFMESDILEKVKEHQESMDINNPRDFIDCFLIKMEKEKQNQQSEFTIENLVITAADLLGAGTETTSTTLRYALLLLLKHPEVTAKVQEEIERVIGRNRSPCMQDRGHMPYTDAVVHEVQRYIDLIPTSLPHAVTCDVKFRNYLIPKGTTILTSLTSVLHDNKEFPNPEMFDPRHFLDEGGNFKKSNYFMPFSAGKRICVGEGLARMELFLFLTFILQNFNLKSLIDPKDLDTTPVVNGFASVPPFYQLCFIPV

SMILES	inhibition at 10 µM
C[C@@H](C(=O)O)c1ccc(OS(=O)(=O)C(F)(F)F)cc1	< 5%

molecular target: CYP2C9 (Homo sapiens, UniProt P11712); assay: Inhibition of CYP2C9 using 7MFC as substrate at 10 uM; assay type: ADME; conditions: probe 7MFC
Sequence (P11712 whole entry): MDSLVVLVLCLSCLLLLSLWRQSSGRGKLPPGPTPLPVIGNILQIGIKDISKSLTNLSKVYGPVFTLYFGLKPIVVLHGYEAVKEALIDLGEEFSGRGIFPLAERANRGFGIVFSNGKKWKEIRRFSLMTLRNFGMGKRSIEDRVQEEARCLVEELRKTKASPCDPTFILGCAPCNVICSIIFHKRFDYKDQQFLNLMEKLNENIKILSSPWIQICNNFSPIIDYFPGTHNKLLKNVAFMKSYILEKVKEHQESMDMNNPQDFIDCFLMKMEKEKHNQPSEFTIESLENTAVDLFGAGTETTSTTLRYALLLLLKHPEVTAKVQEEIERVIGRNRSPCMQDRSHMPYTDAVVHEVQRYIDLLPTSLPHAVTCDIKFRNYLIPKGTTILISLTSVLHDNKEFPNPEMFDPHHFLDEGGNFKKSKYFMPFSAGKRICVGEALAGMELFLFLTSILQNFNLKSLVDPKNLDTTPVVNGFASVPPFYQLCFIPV

SMILES	inhibition at 10 µM
C[C@@H](C(=O)O)c1ccc(OS(=O)(=O)C(F)(F)F)cc1	< 5%

molecular target: CYP3A4 (Homo sapiens, UniProt P08684); assay: Inhibition of CYP3A4 using BFC as substrate at 10 uM; assay type: ADME; conditions: probe BFC
Sequence (P08684 whole entry): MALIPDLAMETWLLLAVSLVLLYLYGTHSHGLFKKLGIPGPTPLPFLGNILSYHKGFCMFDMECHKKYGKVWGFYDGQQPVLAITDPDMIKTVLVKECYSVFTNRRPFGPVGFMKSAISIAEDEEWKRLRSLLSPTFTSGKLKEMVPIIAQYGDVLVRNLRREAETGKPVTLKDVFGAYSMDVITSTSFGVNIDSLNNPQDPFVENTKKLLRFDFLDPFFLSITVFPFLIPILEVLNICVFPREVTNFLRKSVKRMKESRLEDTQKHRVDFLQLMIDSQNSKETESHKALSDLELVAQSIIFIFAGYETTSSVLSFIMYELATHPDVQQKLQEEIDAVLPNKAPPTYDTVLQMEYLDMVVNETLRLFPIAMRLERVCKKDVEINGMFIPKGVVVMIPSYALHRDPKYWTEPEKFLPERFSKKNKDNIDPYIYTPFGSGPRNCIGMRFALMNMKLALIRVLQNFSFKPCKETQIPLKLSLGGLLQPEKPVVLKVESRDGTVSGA

SMILES	inhibition at 10 µM
C[C@@H](C(=O)O)c1ccc(OS(=O)(=O)C(F)(F)F)cc1	< 5%

molecular target: CYP2D6 (Homo sapiens, UniProt P10635); assay: Inhibition of CYP2D6 using AMMC as substrate at 10 uM; assay type: ADME; conditions: probe AMMC
Sequence (P10635 whole entry): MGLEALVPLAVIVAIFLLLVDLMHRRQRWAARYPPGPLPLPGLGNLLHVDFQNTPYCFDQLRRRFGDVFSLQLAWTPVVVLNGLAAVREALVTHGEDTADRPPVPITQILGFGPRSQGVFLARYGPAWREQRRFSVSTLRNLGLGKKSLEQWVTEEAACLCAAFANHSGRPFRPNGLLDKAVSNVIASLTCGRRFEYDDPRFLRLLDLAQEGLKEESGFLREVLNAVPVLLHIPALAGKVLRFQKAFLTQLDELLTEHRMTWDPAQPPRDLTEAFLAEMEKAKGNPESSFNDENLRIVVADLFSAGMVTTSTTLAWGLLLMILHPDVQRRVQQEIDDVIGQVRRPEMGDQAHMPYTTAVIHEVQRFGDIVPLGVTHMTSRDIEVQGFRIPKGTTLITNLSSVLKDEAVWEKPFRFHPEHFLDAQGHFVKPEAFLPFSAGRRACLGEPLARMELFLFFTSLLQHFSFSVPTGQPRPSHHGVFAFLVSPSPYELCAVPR

SMILES	inhibition at 10 µM
C[C@@H](C(=O)O)c1ccc(OS(=O)(=O)C(F)(F)F)cc1	< 5%

molecular target: T1, CYP1A2 (Homo sapiens, UniProt P05177); assay: Inhibition of CYP1A2 using CEC as substrate at 10 uM; assay type: ADME; conditions: probe CEC
T1 sequence (P05177 whole entry): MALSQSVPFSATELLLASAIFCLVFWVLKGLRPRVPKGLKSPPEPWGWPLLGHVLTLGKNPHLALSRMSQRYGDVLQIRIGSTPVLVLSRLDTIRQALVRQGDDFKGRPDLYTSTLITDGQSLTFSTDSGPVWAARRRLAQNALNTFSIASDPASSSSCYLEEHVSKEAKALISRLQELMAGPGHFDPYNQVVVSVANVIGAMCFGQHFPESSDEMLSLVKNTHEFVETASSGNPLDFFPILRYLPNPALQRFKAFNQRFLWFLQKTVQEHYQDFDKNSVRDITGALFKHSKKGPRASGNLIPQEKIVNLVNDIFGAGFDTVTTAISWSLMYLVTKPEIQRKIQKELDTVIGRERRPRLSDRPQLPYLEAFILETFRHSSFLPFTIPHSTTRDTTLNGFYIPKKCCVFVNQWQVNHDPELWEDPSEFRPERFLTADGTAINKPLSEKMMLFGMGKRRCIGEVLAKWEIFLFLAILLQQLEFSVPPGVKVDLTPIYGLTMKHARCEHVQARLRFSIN

SMILES	inhibition at 10 µM
C[C@@H](C(=O)O)c1ccc(OS(=O)(=O)C(F)(F)F)cc1	< 5%

molecular target: T2, C-X-C chemokine receptor type 2 (Homo sapiens) (UniProt P25025); assay: Inhibition of CXCR2 in human polymorphonucleate cells assessed as inhibition of CXCL1-induced chemotaxis at 10^-8 M incubated for 15 mins prior to CXCL1-induction measured after 45 mins; conditions: not given
T2 sequence (whole entry): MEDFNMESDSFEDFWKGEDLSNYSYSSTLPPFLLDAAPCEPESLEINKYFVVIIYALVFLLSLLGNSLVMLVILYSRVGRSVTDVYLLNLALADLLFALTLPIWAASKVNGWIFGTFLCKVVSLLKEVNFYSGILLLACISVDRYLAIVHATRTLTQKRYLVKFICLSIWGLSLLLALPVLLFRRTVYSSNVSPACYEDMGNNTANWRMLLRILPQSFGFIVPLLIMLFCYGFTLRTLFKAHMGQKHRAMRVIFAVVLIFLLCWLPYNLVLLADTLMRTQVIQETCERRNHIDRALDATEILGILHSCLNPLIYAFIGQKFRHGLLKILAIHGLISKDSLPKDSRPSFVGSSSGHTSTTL

SMILES	inhibition
C[C@@H](C(=O)N(C)O)c1ccc(OS(=O)(=O)C(F)(F)F)cc1	49%
C[C@@H](C(=O)O)c1ccc(OS(=O)(=O)C(F)(F)F)cc1	63%

molecular target: Interleukin-8 receptors, CXCR1/CXCR2 (Homo sapiens) (UniProt P25025+P25024); assay: Inhibition of CXCR1/2 in human polymorphonucleate cells assessed as inhibition of CXCL8-induced chemotaxis at 10^-8 M incubated for 15 mins prior to CXCL8-induction measured after 45 mins; conditions: not given

SMILES	inhibition
C[C@@H](C(=O)N(C)O)c1ccc(OS(=O)(=O)C(F)(F)F)cc1	47%
C[C@@H](C(=O)O)c1ccc(OS(=O)(=O)C(F)(F)F)cc1	62%

system: not listed separately; assay: Dissociation constant, pKa of the compound; assay type: physicochemical; conditions: not given

SMILES	pKa
C[C@@H](C(=O)O)c1ccc(OS(=O)(=O)C(F)(F)F)cc1	4

system: Hepatocyte; assay: Drug metabolism in rat hepatocytes assessed as (S)-2-(4-(trifluoromethylsulfonyloxy)phenyl)propanoic acid level at 10 uM after 120 mins; assay type: ADME, cell-based; conditions: 2 h

SMILES	Drug metabolism
C[C@@H](C(=O)O)c1ccc(OS(=O)(=O)C(F)(F)F)cc1	870 ng/mL

system: Hepatocyte; assay: Drug metabolism in rat hepatocytes assessed as (S)-2-(4-(trifluoromethylsulfonyloxy)phenyl)propanoic acid level at 10 uM after 90 mins; assay type: ADME, cell-based; conditions: 1.5 h

SMILES	Drug metabolism
C[C@@H](C(=O)O)c1ccc(OS(=O)(=O)C(F)(F)F)cc1	664 ng/mL
